No end group written: not given here.
Columns and labels:
CXCR4 = details: cited from earlier work
CCR5 = system: CCR5; design: method as in PMID 20721836; details: cited from earlier work
vaginal mucosa = details: cited from earlier work
Source text: Its activity is directed more towards the virus than to host cells. Some of the known anti-HIV peptides such as defensins have better selectivity index, but many of such peptides/molecules act as a double edged-sword. These peptides inhibit HIV infection but also lead to inflammation and/or potentiate pathogen invasion.

HIV = details: cited from earlier work
Source text: HIV-1 infection can be targeted at various stages, for example, viral entry, viral replication or assembly of viral components. HIV entry into the host cells is facilitated by binding of viral envelope glycoprotein (gp120) to host CD4 receptor [3, 4]. CD4-gp120 interaction initiates a cascade of events that stimulates gp41 to promote viral and host membrane fusion. Inhibition of gp120-CD4 interaction or virus-host cell fusion thus appears to be an attractive strategy to prevent HIV-1 infection. Towards this, significant advances have been made. […] Moreover, some of the AMPs cause adverse effects on vaginal commensals like lactobacilli which are required to maintain low pH in vaginal mucosa.

HIV-host cell fusion = details: cited from earlier work
gp120 of HIV-1 IIIB = assay: Binding ELISA, gp120 of HIV-1 IIIB; details: for Binding of designed peptides to gp120: peptide-coated plate, 500ng gp120, 2 hrs at 37°C, 492nm (S1 Fig)
Procedure: (§1) After blocking with 3% bovine serum albumin (BSA) in PBS for 30 min, 100 μl of gp120 (100ng/well) in PBS-0.05% BSA was added to each well and incubated for 2 hrs at 37°C. After three washings with PBS-Tween-20 (PBS-T), cells were incubated with anti-gp120 antibody at 1:200 dilution and then with horse radish peroxidase-(HRP) conjugated secondary goat anti-human antibody (1:10000 dilution) for 1 hr at 37°C. This was followed by incubation with O-phenylenediamine for 20 min. The absorbance was measured at 492 nm on a microplate ELISA reader (ELx-800, Bio-Tek Instruments, USA). Background values obtained in the wells without HbAHP-25 were subtracted from the absorbance values from wells having all other reagents.
Supplementary file pone.0124839.s001.tif: S1 Fig Binding of designed peptides to gp120. Peptides that were designed in silico were evaluated for their binding to gp120 of HIV-1 IIIB. Peptides were coated on 96 well microtiter plate for 16 hrs and then incubated with 500ng of gp120 for 2 hrs at 37°C. This was followed by addition of anti-gp120 antibody, and absorbance was read at 492nm. Background absorbance was subtracted from the wells where peptides were not coated. […] (TIF) Click here for additional data file.

gp120 of HIV-1 BaL = assay: Binding ELISA, gp120 of HIV-1 BaL; details: 2.2–71.40 μM coated, gp120 100ng/well
Procedure: as §1

HIV-1 IIIB and ADA5 = assay: Time-of-addition assay in TZM-bl cells; details: 71.40 μM
Procedure: Luciferase activity was measured at 48 hrs post treatment using Luminometer (ELx-800, Bio-Tek Instruments, USA). VRC01 (0.1 μM) antibody was used as a positive control.

HIV-1 IIIB = assay: Anti-HIV activity, p24 antigen assay in H9 cells; format: cell-based; design: key to Anti-HIV activity: +: moderate; ++: significant; NA: No activity; details: for Anti-HIV activity (in words): 0.1 MoI HIV-1 IIIB pre-incubated with peptide, H9 cells, p24 on day 4
Procedure: Supplementary file pone.0124839.s002.tif: S2 Fig Anti-HIV activity of 3 designed peptides. Anti HIV activity of three peptides was determined using H9 cells. H9 cells were infected for 4 hrs with 0.1 MoI of HIV-1 IIIB pre-incubated with various concentrations of peptides. Peptides were added post infection as well. Supernatant was collected on day 4 post infection, and p24 antigen assay was performed. […] (TIF) Click here for additional data file.
Supplementary file pone.0124839.s003.tif: S3 Fig Anti-HIV activity of peptide analogues of peptide 1. After modifying the peptide 1, we performed anti-HIV assay as earlier. HIV-1 IIIB was pre-incubated with peptide analogues for 1 hr and then added to H9 cells for 4 hrs. Levels of p24 levels were determined on day 4 post infection. […] (TIF) Click here for additional data file.

Compound: c1cc(CN2CCCNCCNCCCNCC2)ccc1CN1CCCNCCNCCCNCC1 [AMD3100]
- CXCR4 antagonism (CXCR4): CXCR4 antagonists

Compound: CCCCOCCOc1ccc(-c2ccc3c(c2)/C=C(/C(=O)Nc2ccc([S@@+]([O-])Cc4cncn4CCC)cc2)CCCN3CC(C)C)cc1 [Cencriviroc]
- CCR5 antagonism (CCR5): CCR5 antagonists

Compound: CCCCCCCCCc1ccc(OCCOCCOCCOCCOCCOCCOCCOCCOCCO)cc1 [Nonoxynol-9]
- Effects on vaginal mucosa (vaginal mucosa): caused detrimental effects on vaginal mucosa

Compound: Enfuvirtide
- Alleviation of HIV infections (HIV): alleviate HIV infections effectively
- Resistance on long term treatment (HIV; mutations in gp41): leads to resistance
- Effect on HIV-host cell fusion (HIV-host cell fusion): interfere with the HIV-host cell fusion

Compound: PLVKDVLRSLCNHAHKCVTLALLRH [Scrambled peptide(sP)]
- Binding to recombinant gp120 of HIV-1 IIIB (gp120 of HIV-1 IIIB; ELISA, 2.2–71.40 μM coated, gp120 100ng/well): did not bind
- Binding to recombinant gp120 of HIV-1 BaL (gp120 of HIV-1 BaL): did not bind
- Inhibition (scrambled control) (HIV-1 IIIB and ADA5): no inhibition

Compound: SAQVKGHGKKVADALTNAVAHVDDMPNAL [Peptide-2, Hb-α subunit derived 29-residue peptide (52–80)]
- Anti-HIV activity (in words) (HIV-1 IIIB; listed as peptide 2): failed to demonstrate any activity
- Anti-HIV activity (in words) (HIV-1 IIIB; listed as peptide-2): did not show any anti-HIV-1 activity
- Binding of designed peptides to gp120 (gp120 of HIV-1 IIIB): failed to show any binding

Compound: VKGHGKKVADALTNAVAHVDDMPNALSAL [Peptide-3, Hb-α subunit derived 29-residue peptide (55–83)]
- Anti-HIV activity (in words) (HIV-1 IIIB): showed anti-HIV activity
- Anti-HIV activity (HIV-1 IIIB; class symbols of Table 1, HIV-1 IIIB in H9 cells, p24 (S2, S3 Fig)): +
- Binding of designed peptides to gp120 (gp120 of HIV-1 IIIB): showed binding to gp120 of HIV-1 IIIB

Compound: human defensin-6: antimicrobial peptide, printed as human defensin-5 and 6 (AFTCHCRRSCYSTEYSYGTCTVMGINHRFCCL; ends and bridges not checked; cysteine pairing not given here; UniProt Q01524 69-100, looked up)
- Effect on HIV infection (HIV): exacerbate HIV infection

Compound: indolicidin: natural antimicrobial peptide (ILPWKWPWWPWRR; not fully specified (C-terminus); ends and bridges not checked; UniProt P33046 131-143, looked up)
- Anti-HIV activity (HIV): reported to have anti-HIV activity
